Measured values from ChEMBL document CHEMBL5653615 (J Biol Chem, 2013).

Key:
[1] = molecular target: T1, Ephrin type-A receptor 1 (Homo sapiens) (UniProt P21709); assay: Inhibition of human EPHA1 at 500 nM by HotSpot assay relative to control
T1 sequence (whole entry): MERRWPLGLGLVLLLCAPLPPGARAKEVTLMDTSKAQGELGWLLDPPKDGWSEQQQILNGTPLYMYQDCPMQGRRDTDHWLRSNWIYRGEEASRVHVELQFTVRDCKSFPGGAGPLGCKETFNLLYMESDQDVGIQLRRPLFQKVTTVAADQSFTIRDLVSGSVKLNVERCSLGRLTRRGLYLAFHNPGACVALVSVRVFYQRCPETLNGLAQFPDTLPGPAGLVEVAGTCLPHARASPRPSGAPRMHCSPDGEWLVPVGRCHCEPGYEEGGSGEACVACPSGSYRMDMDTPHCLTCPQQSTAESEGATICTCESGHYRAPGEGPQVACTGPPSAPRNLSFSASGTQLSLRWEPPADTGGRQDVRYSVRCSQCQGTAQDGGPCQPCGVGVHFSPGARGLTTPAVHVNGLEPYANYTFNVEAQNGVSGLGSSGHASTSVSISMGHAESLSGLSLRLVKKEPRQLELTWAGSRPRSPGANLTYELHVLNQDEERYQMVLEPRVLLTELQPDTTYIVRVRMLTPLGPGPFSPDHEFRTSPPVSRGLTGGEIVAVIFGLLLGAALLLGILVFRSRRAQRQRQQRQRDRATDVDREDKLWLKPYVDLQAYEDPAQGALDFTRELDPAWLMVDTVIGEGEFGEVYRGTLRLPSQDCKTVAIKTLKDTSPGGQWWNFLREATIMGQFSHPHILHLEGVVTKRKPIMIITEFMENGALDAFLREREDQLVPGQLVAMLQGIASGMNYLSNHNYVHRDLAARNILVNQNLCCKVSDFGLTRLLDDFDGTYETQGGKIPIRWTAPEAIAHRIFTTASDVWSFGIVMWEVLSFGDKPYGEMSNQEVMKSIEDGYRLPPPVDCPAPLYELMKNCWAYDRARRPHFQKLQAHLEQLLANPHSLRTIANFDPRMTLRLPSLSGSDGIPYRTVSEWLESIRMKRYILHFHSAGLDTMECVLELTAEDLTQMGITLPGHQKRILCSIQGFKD

[2] = molecular target: Non-receptor tyrosine-protein kinase TYK2 (Homo sapiens) (UniProt P29597); assay: Inhibition of human TYK2 at 500 nM by HotSpot assay relative to control
[3] = molecular target: Serine/threonine-protein kinase 10 (Homo sapiens) (UniProt O94804); assay: Inhibition of human LOK at 500 nM by HotSpot assay relative to control
[4] = molecular target: Dual specificity mitogen-activated protein kinase kinase 1 (Homo sapiens) (UniProt Q02750); assay: Inhibition of human MEK1 at 500 nM by HotSpot assay relative to control
[5] = molecular target: T2, Inhibitor of nuclear factor kappa-B kinase subunit epsilon (Homo sapiens) (UniProt Q14164); assay: Inhibition of human IKKe at 500 nM by HotSpot assay relative to control
T2 sequence (whole entry): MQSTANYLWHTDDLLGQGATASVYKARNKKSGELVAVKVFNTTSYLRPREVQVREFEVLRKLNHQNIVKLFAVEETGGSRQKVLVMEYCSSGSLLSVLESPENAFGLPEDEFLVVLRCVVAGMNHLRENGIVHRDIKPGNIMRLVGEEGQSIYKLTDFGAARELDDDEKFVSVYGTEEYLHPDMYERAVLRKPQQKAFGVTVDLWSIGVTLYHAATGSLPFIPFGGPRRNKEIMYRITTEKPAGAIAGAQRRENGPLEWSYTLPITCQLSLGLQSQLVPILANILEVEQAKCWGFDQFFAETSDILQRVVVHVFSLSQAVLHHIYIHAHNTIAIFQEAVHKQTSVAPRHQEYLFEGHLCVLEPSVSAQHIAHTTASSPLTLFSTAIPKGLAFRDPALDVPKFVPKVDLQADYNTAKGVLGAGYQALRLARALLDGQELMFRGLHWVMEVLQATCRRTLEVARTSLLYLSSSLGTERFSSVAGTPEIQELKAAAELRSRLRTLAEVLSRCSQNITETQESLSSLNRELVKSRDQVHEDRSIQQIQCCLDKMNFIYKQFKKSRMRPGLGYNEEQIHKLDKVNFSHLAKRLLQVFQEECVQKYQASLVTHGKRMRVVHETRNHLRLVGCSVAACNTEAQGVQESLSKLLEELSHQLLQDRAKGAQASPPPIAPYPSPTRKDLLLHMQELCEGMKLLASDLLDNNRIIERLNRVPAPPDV

[6] = molecular target: CDK6/cyclin D1 (Homo sapiens) (UniProt P24385+Q00534); assay: Inhibition of human CDK6/cyclin D1 at 500 nM by HotSpot assay relative to control; assay type: protein-complex assay
[7] = molecular target: T3, Interleukin-1 receptor-associated kinase 4 (Homo sapiens) (UniProt Q9NWZ3); assay: Inhibition of human IRAK4 at 500 nM by HotSpot assay relative to control
T3 sequence (whole entry): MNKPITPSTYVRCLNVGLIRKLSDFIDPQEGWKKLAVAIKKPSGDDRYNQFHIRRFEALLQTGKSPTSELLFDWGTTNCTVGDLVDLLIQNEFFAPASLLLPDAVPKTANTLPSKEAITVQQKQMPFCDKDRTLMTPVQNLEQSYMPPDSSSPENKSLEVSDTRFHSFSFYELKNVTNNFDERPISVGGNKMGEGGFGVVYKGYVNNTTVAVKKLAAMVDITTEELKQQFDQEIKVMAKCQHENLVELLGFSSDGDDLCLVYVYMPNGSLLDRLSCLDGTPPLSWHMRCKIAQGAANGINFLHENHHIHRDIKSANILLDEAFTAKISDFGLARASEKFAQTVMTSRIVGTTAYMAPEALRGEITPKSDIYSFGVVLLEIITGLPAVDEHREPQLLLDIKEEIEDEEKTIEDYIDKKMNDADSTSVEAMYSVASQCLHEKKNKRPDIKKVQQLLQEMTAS

[8] = molecular target: Calcium/calmodulin-dependent protein kinase type II subunit gamma (Homo sapiens) (UniProt Q13555); assay: Inhibition of human CAMK2g at 500 nM by HotSpot assay relative to control
[9] = molecular target: Serine/threonine-protein kinase PLK3 (Homo sapiens) (UniProt Q9H4B4); assay: Inhibition of human PLK3 at 500 nM by HotSpot assay relative to control
[10] = molecular target: Homeodomain-interacting protein kinase 1 (Homo sapiens) (UniProt Q86Z02); assay: Inhibition of human HIPK1 at 500 nM by HotSpot assay relative to control
[11] = molecular target: Mitogen-activated protein kinase kinase kinase 11 (Homo sapiens) (UniProt Q16584); assay: Inhibition of human MAP3K11 at 500 nM by HotSpot assay relative to control
Homo sapiens = species on record: Homo sapiens; assay: Inhibition of human CDK2/cyclin A at 500 nM by HotSpot assay relative to control
[12] = molecular target: Tyrosine-protein kinase Fyn (Homo sapiens) (UniProt P06241); assay: Inhibition of human FYN at 500 nM by HotSpot assay relative to control
Chain of Tyrosine-protein kinase Fyn (Homo sapiens) (P06241 2-537 limits assumed): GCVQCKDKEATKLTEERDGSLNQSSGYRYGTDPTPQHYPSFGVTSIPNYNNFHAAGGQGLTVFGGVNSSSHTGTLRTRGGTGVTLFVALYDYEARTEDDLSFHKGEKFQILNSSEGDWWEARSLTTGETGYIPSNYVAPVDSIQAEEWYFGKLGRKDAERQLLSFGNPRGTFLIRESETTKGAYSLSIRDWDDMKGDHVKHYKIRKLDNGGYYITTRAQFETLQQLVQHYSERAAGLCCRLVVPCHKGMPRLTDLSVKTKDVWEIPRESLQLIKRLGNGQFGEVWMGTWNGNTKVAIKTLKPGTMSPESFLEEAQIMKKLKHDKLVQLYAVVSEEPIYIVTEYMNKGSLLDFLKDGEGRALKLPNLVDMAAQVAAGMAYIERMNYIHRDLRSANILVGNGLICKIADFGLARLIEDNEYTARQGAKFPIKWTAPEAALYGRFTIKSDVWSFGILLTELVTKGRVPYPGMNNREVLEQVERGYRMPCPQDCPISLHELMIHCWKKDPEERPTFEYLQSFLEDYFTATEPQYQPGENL

Chain of Serine/threonine-protein kinase PLK3 (Homo sapiens) (Q9H4B4 whole entry, looked up): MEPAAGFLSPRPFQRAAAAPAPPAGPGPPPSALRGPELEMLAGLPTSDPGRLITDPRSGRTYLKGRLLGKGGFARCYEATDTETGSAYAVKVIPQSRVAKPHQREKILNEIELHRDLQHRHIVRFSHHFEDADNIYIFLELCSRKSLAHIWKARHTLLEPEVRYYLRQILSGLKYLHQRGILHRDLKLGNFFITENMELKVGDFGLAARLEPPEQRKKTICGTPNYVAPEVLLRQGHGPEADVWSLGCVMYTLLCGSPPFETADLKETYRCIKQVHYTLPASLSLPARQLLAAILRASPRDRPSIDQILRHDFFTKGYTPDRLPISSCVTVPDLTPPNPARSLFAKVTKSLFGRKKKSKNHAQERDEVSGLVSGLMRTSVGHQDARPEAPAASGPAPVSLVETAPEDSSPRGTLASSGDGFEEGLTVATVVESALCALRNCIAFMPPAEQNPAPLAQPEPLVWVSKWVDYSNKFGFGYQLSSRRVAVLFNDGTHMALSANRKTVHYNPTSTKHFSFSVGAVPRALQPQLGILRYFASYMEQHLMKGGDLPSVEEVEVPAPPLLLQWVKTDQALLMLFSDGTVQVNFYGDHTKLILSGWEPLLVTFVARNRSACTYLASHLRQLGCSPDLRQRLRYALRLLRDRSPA
Chain of Non-receptor tyrosine-protein kinase TYK2 (Homo sapiens) (P29597 whole entry): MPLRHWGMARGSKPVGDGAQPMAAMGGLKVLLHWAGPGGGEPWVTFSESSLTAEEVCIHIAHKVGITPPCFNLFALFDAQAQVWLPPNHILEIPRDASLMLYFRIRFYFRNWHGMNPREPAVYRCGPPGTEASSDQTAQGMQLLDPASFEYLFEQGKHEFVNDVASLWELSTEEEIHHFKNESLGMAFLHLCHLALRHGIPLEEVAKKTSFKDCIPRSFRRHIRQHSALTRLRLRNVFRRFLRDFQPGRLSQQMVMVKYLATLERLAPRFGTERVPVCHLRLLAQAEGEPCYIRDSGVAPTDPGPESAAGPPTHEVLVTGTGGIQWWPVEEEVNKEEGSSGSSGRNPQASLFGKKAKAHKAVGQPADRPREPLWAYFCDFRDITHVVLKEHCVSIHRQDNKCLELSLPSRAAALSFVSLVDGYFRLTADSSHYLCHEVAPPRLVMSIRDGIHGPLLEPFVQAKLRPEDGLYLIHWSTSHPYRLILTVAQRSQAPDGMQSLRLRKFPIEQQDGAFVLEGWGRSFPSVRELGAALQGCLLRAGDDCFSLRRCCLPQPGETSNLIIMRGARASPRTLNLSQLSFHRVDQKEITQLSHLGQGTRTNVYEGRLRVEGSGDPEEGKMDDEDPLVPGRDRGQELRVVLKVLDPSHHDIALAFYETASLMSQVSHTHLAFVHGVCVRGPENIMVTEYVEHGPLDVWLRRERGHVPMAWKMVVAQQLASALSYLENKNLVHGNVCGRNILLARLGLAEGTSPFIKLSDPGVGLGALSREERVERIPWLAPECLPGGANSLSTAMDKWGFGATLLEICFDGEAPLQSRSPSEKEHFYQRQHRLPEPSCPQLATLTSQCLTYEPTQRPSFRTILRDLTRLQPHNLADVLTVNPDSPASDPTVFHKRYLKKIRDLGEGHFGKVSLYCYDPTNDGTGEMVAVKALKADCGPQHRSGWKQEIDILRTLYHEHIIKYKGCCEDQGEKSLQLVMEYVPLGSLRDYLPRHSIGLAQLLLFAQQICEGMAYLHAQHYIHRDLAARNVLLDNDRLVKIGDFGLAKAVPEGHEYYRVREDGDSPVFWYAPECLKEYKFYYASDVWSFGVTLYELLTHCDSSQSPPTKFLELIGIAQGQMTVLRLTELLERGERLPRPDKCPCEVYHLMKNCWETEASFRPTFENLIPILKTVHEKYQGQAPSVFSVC
Chain of Dual specificity mitogen-activated protein kinase kinase 1 (Homo sapiens) (Q02750 whole entry): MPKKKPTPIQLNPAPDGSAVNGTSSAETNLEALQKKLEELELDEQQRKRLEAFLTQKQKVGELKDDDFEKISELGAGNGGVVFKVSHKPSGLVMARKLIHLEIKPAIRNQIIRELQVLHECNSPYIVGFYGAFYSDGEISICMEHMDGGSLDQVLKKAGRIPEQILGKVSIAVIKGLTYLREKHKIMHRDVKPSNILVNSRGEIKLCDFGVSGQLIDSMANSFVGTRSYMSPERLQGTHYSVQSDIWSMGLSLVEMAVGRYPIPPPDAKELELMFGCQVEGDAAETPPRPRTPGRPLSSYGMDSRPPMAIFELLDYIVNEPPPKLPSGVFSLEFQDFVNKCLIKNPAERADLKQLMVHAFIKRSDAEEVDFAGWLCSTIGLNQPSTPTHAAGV
Chain of Mitogen-activated protein kinase kinase kinase 11 (Homo sapiens) (Q16584 whole entry, looked up): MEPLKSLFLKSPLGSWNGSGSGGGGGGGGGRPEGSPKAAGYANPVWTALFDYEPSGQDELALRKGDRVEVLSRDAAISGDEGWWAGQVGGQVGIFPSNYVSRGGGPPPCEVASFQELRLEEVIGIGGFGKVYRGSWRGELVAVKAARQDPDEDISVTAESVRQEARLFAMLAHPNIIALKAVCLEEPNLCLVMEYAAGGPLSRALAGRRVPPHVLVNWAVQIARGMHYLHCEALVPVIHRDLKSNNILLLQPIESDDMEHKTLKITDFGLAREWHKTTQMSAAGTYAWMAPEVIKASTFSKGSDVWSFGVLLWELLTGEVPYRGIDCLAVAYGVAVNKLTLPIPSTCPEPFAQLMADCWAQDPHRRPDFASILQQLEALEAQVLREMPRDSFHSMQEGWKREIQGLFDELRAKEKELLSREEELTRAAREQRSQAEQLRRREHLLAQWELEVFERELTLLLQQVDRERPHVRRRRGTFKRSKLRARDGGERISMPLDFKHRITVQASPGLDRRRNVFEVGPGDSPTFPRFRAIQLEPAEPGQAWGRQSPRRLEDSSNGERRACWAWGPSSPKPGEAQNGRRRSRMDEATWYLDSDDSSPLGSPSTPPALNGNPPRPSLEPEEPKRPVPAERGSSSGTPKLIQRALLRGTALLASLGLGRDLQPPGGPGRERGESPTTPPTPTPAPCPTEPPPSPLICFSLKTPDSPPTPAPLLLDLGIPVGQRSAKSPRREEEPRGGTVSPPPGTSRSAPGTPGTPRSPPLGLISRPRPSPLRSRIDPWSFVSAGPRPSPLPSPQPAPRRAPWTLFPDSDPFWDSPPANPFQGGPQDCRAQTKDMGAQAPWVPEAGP
Chain of Calcium/calmodulin-dependent protein kinase type II subunit gamma (Homo sapiens) (Q13555 whole entry): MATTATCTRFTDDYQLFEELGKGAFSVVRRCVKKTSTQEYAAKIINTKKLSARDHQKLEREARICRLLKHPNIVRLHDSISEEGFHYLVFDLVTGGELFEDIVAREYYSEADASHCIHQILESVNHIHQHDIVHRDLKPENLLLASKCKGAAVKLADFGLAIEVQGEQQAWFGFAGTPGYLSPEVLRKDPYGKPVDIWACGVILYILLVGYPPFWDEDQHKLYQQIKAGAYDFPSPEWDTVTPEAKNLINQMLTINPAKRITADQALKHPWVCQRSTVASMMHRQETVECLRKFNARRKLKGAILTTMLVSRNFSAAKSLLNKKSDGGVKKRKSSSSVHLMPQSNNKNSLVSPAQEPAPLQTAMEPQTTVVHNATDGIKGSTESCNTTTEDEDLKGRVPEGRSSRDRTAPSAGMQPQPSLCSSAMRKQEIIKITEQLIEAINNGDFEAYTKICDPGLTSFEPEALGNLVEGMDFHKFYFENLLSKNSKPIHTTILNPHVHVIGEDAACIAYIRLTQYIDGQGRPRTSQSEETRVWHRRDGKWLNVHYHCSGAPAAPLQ

SMILES	inhibition [1]	inhibition [2]	inhibition [3]	inhibition [4]	inhibition [5]	inhibition [6]	inhibition [7]	inhibition [8]	inhibition [9]	inhibition [10]	inhibition [11]	inhibition (Homo sapiens)	inhibition [12]
Oc1n[nH]c2nnc(-c3c(-c4ccccc4)nn4ccccc34)cc12	4.34%	-3.67%	5.81%	5.15%	0.81%	-3.16%	-3.11%	2.06%	1.17%	-1.71%	2.87%	-0.72%	-0.67%
Nc1n[nH]c2nnc(-c3c(-c4ccccc4)nn4ccccc34)cc12	7.41%	-3.67%	29.1%	5.65%	4.54%	-0.33%	-5.42%	3.3%	-0.08%	-4.88%	5.68%	7.12%	4.98%
